Source: patent publication US5688824A, “Use of leflunomide to prevent or control xenograft rejection” (priority 1996, dated 1997)
Read-outs that look alike come from different tables or passages of the source.

Key:
SLE in MRL/lpr mice = settings: at the end of 10 weeks, mice with elevated urine protein; cited from earlier work
renal allograft = settings: BN-LEW renal transplant; cited from earlier work
[1] = tested on: rejection of concordant hamster to rat cardiac xenografts; settings: earlier work, cited from earlier work
[2] = tested on: human peripheral blood lymphocytes; assay: one-way mixed lymphocyte reaction (3H-thymidine uptake); format: cell-based
Procedure: The effect of varying concentrations of leflunomide product (A771726, Hoechst AG Werk Albert, Wiesbaden, Germany) in combination with varying concentrations of rapamycin (Wyeth-Ayerst Research, Rouses Point, N.Y.) was evaluated in a one-way mixed lymphocyte reaction (MLR) performed according to Kahan et al., Transplantation, 51:232 (1991). Briefly, human peripheral blood lymphocytes (2×10^5 per well) were incubated with an equal number of gamma-irradiated, allogeneic peripheral blood lymphocytes for 5 days in the presence of varying concentrations of leflunomide and rapamycin. The lymphocytes were then incubated for 16 to 20 hours with 1 μCi/well of ^3 H-thymidine. The amount of ^3 H-thymidine uptake was measured, and the percent inhibition of proliferation by each drug or drug combination was calculated. Data from two trials appear below in Tables 4 and 5.

murine B-cell = settings: in vitro; cited from earlier work
[3] = tested on: heterotopic small intestinal transplantation; settings: cited from earlier work
cGvH disease or SLE = settings: mouse, U.S. Pat. No. 4,965,276; cited from earlier work
murine T-cell = settings: in vitro; cited from earlier work
[4] = humans; cited from earlier work

## C[C@]12C=CC(=O)C=C1CC[C@@H]1[C@@H]2[C@@H](O)C[C@@]2(C)[C@H]1CC[C@]2(O)C(=O)CO [prednisolone]
SLE in MRL/lpr mice
  animals still alive: 40%
Renal allograft
  protection: neither azathioprine nor prednisolone offered any protection

## O=P1(N(CCCl)CCCl)NCCCO1 (stereo not shown) [Cytoxan]
[1]; Cytoxan
  control of xenograft rejection: can completely control rejection of xenografts
  toxicity of required dose: lethally toxic range

## C/C(O)=C(\C#N)C(=O)Nc1ccc(C(F)(F)F)cc1 [A771726, N-(4-trifluoromethylphenyl)-2-cyano-3-hydroxycrotonamide]
[2]; 12.50 μM Lef, 0.00 nM Rapa, Table 4
  % Inhibition of Lymphocyte Proliferation: 15.19%
[2]; 12.50 μM Lef, 0.00 nM Rapa, Table 5
  % Inhibition of Lymphocyte Proliferation: 21.84%
[2]; 25.00 μM Lef, 0.00 nM Rapa, Table 4
  % Inhibition of Lymphocyte Proliferation: 37.35%
[2]; 25.00 μM Lef, 0.00 nM Rapa, Table 5
  % Inhibition of Lymphocyte Proliferation: 38.40%
[2]; 50.00 μM Lef, 0.00 nM Rapa, Table 4
  % Inhibition of Lymphocyte Proliferation: 56.71%
[2]; 50.00 μM Lef, 0.00 nM Rapa, Table 5
  % Inhibition of Lymphocyte Proliferation: 68.63%
Murine B-cell
  inhibition of murine B-cell proliferation: more potent inhibitor of B-cell proliferation
[3]; 5 mg/kg/day by gavage for 7 days
  survival of recipients: 15.0 ± 2.1 days
[3]; 5 mg/kg/day by gavage for 14 days
  survival of recipients: 21.2 ± 1.6 days
[3]; 5 mg/kg/day by gavage for 28 days
  survival of recipients: 33.8 ± 2.4 days
cGvH disease or SLE
  glomerulonephritis, anti-dsDNA titer, GvH index, T-lymphocyte proliferative ability: prevented development of glomerulonephritis, reduced anti-dsDNA titer, decreased the GvH index (a measure of relative spleen enlargement), and improved the diminished proliferative ability of T-lymphocytes
  inhibition of development of cGvH disease or SLE: effective in inhibiting the development of cGvH disease or SLE
Murine T-cell
  inhibition of murine T-cell proliferation: inhibit murine B-cell and T-cell proliferation

## Cn1cnc([N+](=O)[O-])c1Sc1ncnc2nc[nH]c12 [azathioprine]
Renal allograft
  protection: neither azathioprine nor prednisolone offered any protection

## CO[C@H]1C[C@@H]2CC[C@@H](C)[C@@](O)(O2)C(=O)C(=O)N2CCCC[C@H]2C(=O)O[C@H]([C@H](C)C[C@@H]2CC[C@@H](O)[C@H](OC)C2)CC(=O)[C@H](C)/C=C(\C)[C@@H](O)[C@@H](OC)C(=O)[C@H](C)C[C@H](C)/C=C/C=C/C=C/1C [rapamycin]
[2]; 0.010 nM Rapa, 0.00 μM Lef, Table 4
  % Inhibition of Lymphocyte Proliferation: 27.12%
[2]; 0.010 nM Rapa, 0.00 μM Lef, Table 5
  % Inhibition of Lymphocyte Proliferation: 4.78%
[2]; 0.050 nM Rapa, 0.00 μM Lef, Table 4
  % Inhibition of Lymphocyte Proliferation: 38.78%
[2]; 0.050 nM Rapa, 0.00 μM Lef, Table 5
  % Inhibition of Lymphocyte Proliferation: 37.75%
[2]; 0.100 nM Rapa, 0.00 μM Lef, Table 4
  % Inhibition of Lymphocyte Proliferation: 57.42%
[2]; 0.100 nM Rapa, 0.00 μM Lef, Table 5
  % Inhibition of Lymphocyte Proliferation: 51.71%
[2]; 1.00 nM Rapa, 0.00 μM Lef, Table 4
  % Inhibition of Lymphocyte Proliferation: 89.25%
[2]; 1.00 nM Rapa, 0.00 μM Lef, Table 5
  % Inhibition of Lymphocyte Proliferation: 80.83%

## Nc1ccc(C(F)(F)F)cc1 [trifluoromethyl aniline]
[4]
  side effect of accumulation of the metabolite: Heinz-body hemolytic anemia

## C=CC[C@@H]1/C=C(\C)C[C@H](C)C[C@H](OC)[C@H]2O[C@@](O)(C(=O)C(=O)N3CCCC[C@H]3C(=O)O[C@H](/C(C)=C/[C@@H]3CC[C@@H](O)[C@H](OC)C3)[C@H](C)[C@@H](O)CC1=O)[C@H](C)C[C@@H]2OC [FK-506]
[1]; hamster to rat cardiac xenograft
  effect on xenograft survival: limited effect on xenograft survival even at lethal doses
